Columns and labels:
SKBR3 cells [1] = test: Uptake mechanism of GO nanodrug structures with endocytosis inhibitors (flow cytometry); format: cell-based, human; details: 1 hour pre-incubation with inhibitor, 15 mins with nanoparticles, FIG. 10
Description: The uptake mechanism of the GO nanodrug structures was then investigated using various endocytosis inhibitors in comparison with the graphene oxide drug metamaterial described here-above, free of any drug active (GO control).
Different endocytosis inhibitors were tested: • Cytochalasin D, an inhibitor of macropinocytosis-dependent endocytosis in a dosage of 10, 5 and 1 (μM); • Genistein, an inhibitor of caveolae-mediated endocytosis in a dosage of 100, 30 and 25 (μM); and • Chlorpromazine (CMZ), an inhibitor of clathrin-mediated endocytosisin a dosage of 5, 1 and 0.5 (μM).
Cellular internalization of each nanostructure was followed as described here-after.
SKBR3 cells were seeded to a density of 1.0×10^5 cells per well in a 12-well plates followed by an overnight incubation. The cells were rinsed with PBS and pre-incubated with different concentrations of the appropriate endocytic inhibitor in serum-free RPMI 1640 media, for 1 hour. The media was then replaced with the same concentration of inhibitors in serum-containing RPMI 1640 media, the nanoparticles were added and cells were incubated for 15 mins. Following incubation, the medium was removed and cells were rinsed several times with cold PBS. The cells were collected with trypsin EDTA and analyzed using flow cytometry analysis.

SKBR3 cells [2] = test: Uptake efficiency of GO-HER2 antibody nanodrug structures after preincubation with Lapatinib; format: cell-based, human; details: SKBR3 cells preincubated with Lapatinib; FIG. 11
Description: Abscissa: amount of Lapatinib (μM). Ordinate: uptake efficiency (%).
Lapatinib is a known HER2 tyrosine kinase inhibitor, which induces stabilization and accumulation of HER2.

[3] = tested on: MDA-MB-231 (human breast basal epithelial cancer cells); details: MDA-MB-231 cells, different concentrations of the peptide; Kawamoto et al. 2013; cited from earlier work

Molecule	inhibition of internalization (cellular uptake) of GO nanodrug structures (SKBR3 cells [1])	other results
CN(C)CCCN1c2ccccc2Sc2ccc(Cl)cc21 [Chlorpromazine]	did not show any notable inhibition	–
C=C1[C@@H](C)[C@H]2[C@H](Cc3ccccc3)NC(=O)[C@]23[C@H](OC(C)=O)/C=C/[C@@](C)(O)C(=O)[C@@H](C)C/C=C/[C@H]3[C@@H]1O [Cytochalasin D]	significantly inhibited the internalization	–
O=c1c(-c2ccc(O)cc2)coc2cc(O)cc(O)c12 [Genistein]	did not show any notable inhibition	–
CS(=O)(=O)CCNCc1ccc(-c2ccc3ncnc(Nc4ccc(OCc5cccc(F)c5)c(Cl)c4)c3c2)o1 [Lapatinib]	–	effect on uptake efficiency of GO-HER2 antibody nanodrug structures (SKBR3 cells [2]): dose-dependent reduction in intake
KLLLKLLKKLLKLLKKK (anti-cancer cationic lytic peptide) [cationic lytic anti-cancer peptide, disintegrates the cell membrane]	–	effect on cell proliferation [3]: dose-dependent reduction in cell proliferation
